In US10344026B2, “Compositions and methods of targeting mutant K-ras” (NANTBIO, INC., priority 2017, dated 2019):

How the values were obtained:
Assay type in all cases: cell-based
[1] = test system: phospho-Akt in Panc1 (G12D); assay: In-Cell Western phospho-Akt, Panc1; conditions: Homo sapiens, PANC-1, 1 h; Panc1, one hour treatment; read-out: In-Cell Western Panc1 (G12D) Akt (P)
How it was run: (§1)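 Cells were seeded at 3000 cells/well, incubated 18 hr at 37° C, then treated with compound for 1 hr (0.5% DMSO final). After fixation, permeabilization and blocking, phospho-Akt or phospho-ERK antibodies were applied overnight at 4° C, followed by secondary antibody; cellular fluorescence was imaged and EC50 calculated.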

HCT116-G31D = assay: Viability assay (CellTiterBlue, 72 hr) HCT116; conditions: Homo sapiens, HCT-116, GI50, CellTiterBlue, HCT116 K-Ras G13D, read-out: 72 hr Cell Viability HCT116 (G13D)
How it was run: (§2)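 Fluorescence at Ex550/Em590, read 3 hr after CellTiterBlue addition, served as the viability signal following 72 hr compound treatment. Wells held 1000 cells, pre-incubated 18 hr at 37 °C, with 0.5% DMSO final. GI50 derived with DMSO as 100% and 100 uM tamoxifen as 0% viability.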

wild type K-Ras = molecular target: T1, wild type K-Ras (Homo sapiens, UniProt P01116); assay: G-LISA Ras activation, 293H cells transfected with Ras wild-type, EGF stimulated; conditions: compound 1 hour, then 100 ng/ml EGF 2 minutes
T1 construct: expressed in transfected cells; host or cells: 293H cells
T1 sequence (P01116 whole entry): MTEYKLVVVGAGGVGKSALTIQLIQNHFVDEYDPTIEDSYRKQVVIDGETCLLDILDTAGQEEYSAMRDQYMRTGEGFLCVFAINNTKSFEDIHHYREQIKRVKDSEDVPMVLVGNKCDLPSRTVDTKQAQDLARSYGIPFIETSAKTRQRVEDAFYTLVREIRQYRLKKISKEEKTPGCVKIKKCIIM
How it was run: (§3)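 G-LISA Ras-GTP readout; 293H transfectants treated 1 h with 3.125-25 μM compound, EGF pulse (100 ng/ml, 2 min) for wild-type only.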

[2] = test system: phospho-ERK in Panc1 (G12D); assay: In-Cell Western phospho-ERK, Panc1; conditions: Homo sapiens, PANC-1, 1 h; Panc1, one hour treatment; read-out: In-Cell Western Panc1 (G12D) Erk (P)
How it was run: as §1

[3] = test system: HCC827 (K-Ras wild type cell line); assay: Viability assay (CellTiterBlue, 72 hr) HCC827; conditions: Homo sapiens, GI50, CellTiterBlue, HCC827 K-Ras wild-type
How it was run: as §2

[4] = test system: phospho-ERK in Panc10.05 (G12D); assay: In-Cell Western phospho-ERK, Panc10.05; conditions: Homo sapiens, Panc1005, 1 h; Panc10.05, one hour treatment; read-out: In-Cell Western Panc10.05 (G12D) Erk (P)
How it was run: as §1

[5] = test system: A375 (K-Ras wild type cell line); assay: Viability assay (CellTiterBlue, 72 hr) A375; conditions: Homo sapiens, A-375, GI50, CellTiterBlue
Method: Viability assays were performed on exemplary compounds and Table 2 below lists exemplary results for selected compounds tested on K-Ras wild type cell lines (Ishikawa, U87-MG, HCC827, and A375) and various K-Ras mutant cell lines (Panc1-G12D; Panc10.05-G12D; HCT116-G31D). Results are expressed in μM and corresponding structures are shown in FIGS. 2A-2G and Examples 1-152, above.
Cells are counted and seeded at 1000 cells/36 ul medium/well into 384-well microplates. Cells are returned to 37° C. CO2 incubator for 18 hr. Drug is made as 200× in DMSO and diluted into medium to 10×. To each well is added 4 ul 10× drug, and plates are returned to the incubator. Final assay DMSO concentration is 0.5%. After 72 hr, 8 ul CellTiterBlue (Promega) is added to each well. After 3 hr, fluorescence (Ex550/Em590) is determined on the Victor Plate Reader (Perkin Elmer). Assay range is determined by DMSO control (100% viability) and 100 uM tamoxifen (0% viability). GI50 values are calculated using Graphpad Prism.

[6] = test system: U87-MG (K-Ras wild type cell line); assay: Viability assay (CellTiterBlue, 72 hr) U87-MG; conditions: Homo sapiens, U-87 MG, GI50, CellTiterBlue, U87-MG K-Ras wild-type
How it was run: as §2

[7] = test system: phospho-ERK in HCC827 (Wild-type); assay: In-Cell Western phospho-ERK, HCC827; conditions: Homo sapiens, 1 h; HCC827, one hour treatment; read-out: In-Cell Western HCC827 (Wild-type) Erk (P)
Method: (§4) In-cell phosphorylation assays for Erk and Akt were performed on several of the compounds and exemplary results are shown in Table 3 below using HCC827 and A375 cell lines for wild type K-Ras and Panc1 and Panc10.05 cell lines for G12D K-Ras mutants. Results are expressed in μM and corresponding structures are shown in FIGS. 2A-2G and Examples 1-152, above.
(§5) Cells are seeded in complete medium into black sided, clear-bottom 384-well microplates at 3000 cells/[…]/well. Plates are returned to 37° C. CO2 incubator for 18 hr. Drug is made as 200× in DMSO and diluted into medium to 10×. To each well is added 4 ul 10× test article or controls, and plates are returned to the incubator. Final assay DMSO concentration is 0.5%. After one hour, cells are fixed in formaldehyde, rinsed & permeabilized with triton X-100, and blocked with BSA/Goat serum blocking solution. Primary phospho-Akt and phospho-ERK antibodies are added and plates are incubated overnight at 4° C. Plates are rinsed with Tween-20 wash buffer and secondary antibody (Goat anti-rabbit, Thermofisher) is added. After 2 hours, plates are rinsed in Tween-20 wash buffer, and then PBS. Plates are imaged on the Celigo (Nexcelom) and cellular fluorescence is quantitated. Full inhibition of phospho-Akt is achieved with 1 uM BEZ235 (Sellekchem), while full inhibition of phospho-ERK is achieved with 1 uM MEK Inhibitor II Calbiochem). EC50 values are calculated using Graphpad Prism.

[8] = test system: phospho-ERK in A375 (Wild-type); assay: In-Cell Western phospho-ERK, A375; conditions: Homo sapiens, A-375, 1 h; A375, one hour treatment; read-out: In-Cell Western A375 (Wild-type) Erk (P)
Method: as §4, §5

Panc1-G12D = assay: Viability assay (CellTiterBlue, 72 hr) Panc1; conditions: Homo sapiens, PANC-1, GI50, CellTiterBlue, Panc1 K-Ras G12D, read-out: 72 hr Cell Viability Panc1 (G12D)
How it was run: as §2

[9] = test system: phospho-Akt in A375 (Wild-type); assay: In-Cell Western phospho-Akt, A375; conditions: Homo sapiens, A-375, 1 h; A375, one hour treatment; read-out: In-Cell Western A375 (Wild-type) Akt (P)
Method: as §4, §5

K-Ras G12D = molecular target: T2, K-Ras G12D (Homo sapiens, UniProt P01116, G12D); assay: G-LISA Ras activation, 293H cells transfected with G12D mutant; conditions: compound 1 hour
T2 construct: expressed in transfected cells; host or cells: 293H cells
T2 sequence (P01116 whole entry G12D): as the sequence (P01116 whole entry) above, with G12D counted along it
How it was run: as §3

[10] = test system: phospho-Akt in Panc10.05 (G12D); assay: In-Cell Western phospho-Akt, Panc10.05; conditions: Homo sapiens, Panc1005, 1 h; Panc10.05, one hour treatment; read-out: In-Cell Western Panc10.05 (G12D) Akt (P)
How it was run: as §1

[11] = test system: Ishikawa (K-Ras wild type cell line); assay: Viability assay (CellTiterBlue, 72 hr) Ishikawa; conditions: Homo sapiens, GI50, CellTiterBlue, Ishikawa K-Ras wild-type
How it was run: as §2

Panc10.05-G12D = assay: Viability assay (CellTiterBlue, 72 hr) Panc10.05; conditions: Homo sapiens, Panc1005, GI50, CellTiterBlue, Panc10.05 K-Ras G12D, read-out: 72 hr Cell Viability Panc10.05 (G12D)
How it was run: as §2

Row | SMILES | EC50 [1] [µM] | IC50 (HCT116-G31D) [µM] | IC50 (wild type K-Ras) [µM] | EC50 [2] [µM] | IC50 [3] [µM] | EC50 [4] [µM] | IC50 [5] [µM] | IC50 [6] [µM] | EC50 [7] [µM] | EC50 [8] [µM] | IC50 (Panc1-G12D) [µM] | EC50 [9] [µM] | IC50 (K-Ras G12D) [µM] | EC50 [10] [µM] | IC50 [11] [µM] | IC50 (Panc10.05-G12D) [µM]
1 | CCc1nc(C)c(C(=O)Nc2nc(-c3ccc4c(c3)CCC(=O)N4Cc3cccnc3)cs2)s1 [Compound 106, 2-ethyl-4-methyl-N-(4-(2-oxo-1-(pyridin-3-ylmethyl)-1,2,3,4-tetrahydroquinoinolin-6-yl)thiazol-2-yl)thiazole-5-carboxamide] | 25 | 6 | 9.6 | 5 | > 25 | 10 | 22 | > 25 | 7 | 20 | 12 | > 25 | 4.4 | > 25 | > 25 | 3
2 | COCCCN1C(=O)CCc2cc(-c3csc(NC(=O)c4oc(C)nc4C)n3)ccc21 [Compound 96, N-(4-(1-(3-methoxypropyl)-2-oxo-1,2,3,4-tetrahydroquinolin-6-yl)thiazol-2-yl)-2,4-dimethyloxazole-5-carboxamide] | 4 | 3 | 12.1 | 7 | 4 | 1.1 | > 25 | > 25 | 7 | 6 | 4 | 6 | 5 | 9 | > 25 | 3
3 | CCn1nc(C)c(C(=O)Nc2nc(-c3ccc4c(c3)CCC(=O)N4Cc3cccnc3)cs2)c1C [Compound 114, 1-ethyl-3,5-dimethyl-N-(4-(2-oxo-1-(pyridin-3-ylmethyl)-1,2,3,4-tetrahydroquinolin-6-yl)thiazol-2-yl)-1H-pyrazole-4-carboxamide] | 17 | 5 | 6 | 1.1 | > 25 | 1.9 | 6 | > 25 | 4 | 5 | 22 | > 25 | 3 | 17 | > 25 | 1.1
4 | Cc1nn(C)c(C)c1C(=O)Nc1nc(-c2ccc3c(c2)CCC(=O)N3Cc2cccnc2)cs1 [Compound 113, 1,3,5-trimethyl-N-(4-(2-oxo-1-(pyridin-3-ylmethyl)-1,2,3,4-tetrahydroquinolin-6-yl)thiazol-2-yl)-1H-pyrazole-4-carboxamide] | > 25 | 11 | 9.6 | 2 | > 25 | 7 | 14 | > 25 | 6 | 13 | 19 | > 25 | 6.3 | > 25 | > 25 | 2
5 | Cn1nc(C(C)(C)C)cc1C(=O)Nc1nc(-c2ccc3c(c2)CCC(=O)N3)cs1 [Compound 43, 3-(tert-butyl)-1-methyl-N-(4-(2-oxo-1,2,3,4-tetrahydroquinolin-6-yl)thiazol-2-yl)-1H-pyrazole-5-carboxamide] | > 25 | > 25 | > 25 | > 25 | > 25 | > 25 | > 25 | > 25 | 19 | > 25 | > 25 | > 25 | > 25 | > 25 | > 25 | > 25
6 | Cc1nc(C)c(C(=O)Nc2nc(-c3ccc4c(c3)CCC(=O)N4CCN(C)C)cs2)o1 [Compound 97, N-(4-(1-(2-(dimethylamino)ethyl)-2-oxo-1,2,3,4-tetrahydroquinolin-6-yl)thiazol-2-yl)-2,4-dimethyloxazole-5-carboxamide] | 6 | 5 | 12.6 | 5 | 5 | 1.2 | > 25 | > 25 | > 25 | 8 | 9 | 10 | 8.1 | 12 | > 25 | 4
7 | CCc1nc(C)c(C(=O)Nc2nc(-c3ccc4c(c3)CCC(=O)N4C(C)c3cccnc3)cs2)o1 (stereo not drawn) [Compound 102, 2-ethyl-4-methyl-N-(4-(2-oxo-1-(1-(pyridin-3-yl)ethyl)-1,2,3,4-tetrahydroquinolin-6-yl)thiazol-2-yl)oxazole-5-carboxamide] | > 25 | 13 | – | 8 | > 25 | 19 | > 25 | > 25 | 11 | 26 | > 25 | > 25 | 8.2 | > 25 | > 25 | 5
8 | Cc1nc(C2CCC2)oc1C(=O)Nc1nc(-c2ccc3c(c2)CCC(=O)N3Cc2cccnc2)cs1 [Compound 92, 2-cyclobutyl-4-methyl-N-(4-(2-oxo-1-(pyridin-3-ylmethyl)-1,2,3,4-tetrahydroquinolin-6-yl)thiazol-2-yl)oxazole-5-carboxamide] | – | 1.5 | 15.2 | 6 | 4 | 2 | > 25 | > 25 | 15 | > 25 | 6 | > 25 | 8.5 | 17 | > 25 | 3
